This is an account of results in article PMC10699557, “A recombinant approach for stapled peptide discovery yields inhibitors of the RAD51 recombinase” (Chemical Science, 2023).

Like-named read-outs stand apart in the source and are kept apart here. Numbered stars: 1 amine (or outer) side, 2 acyl side, 3 side chain; on linkers, the order of the positions; unused ones are H or OH. Bridge positions count the residues as written; N and C are the ends. Ends that are not written are not given here. X2 = CN(CC(=O)O)c1nc(CC[*:1])nc(CC[*:2])n1 Bounds are passed on as bounds.

Assay [1] has as its target monomeric version of RAD51 (HumRadA22) (Pyrococcus furiosus, UniProt O74036). Put plainly: Fluorescence polarisation (FP) competition assay: displacement of fluorescein-labelled BRC4 repeat. It counts as binding, archaeal RadA mutant with human Rad51 surface residues. The settings on record: 100 nM HumRadA22, 10 nM BRC4-fluorescein, KD calculated from IC50, single titration, three technical replicates per point. The text has this:
We prepared all stapled peptides from small-scale bacterial cultures as GB1/C-His8 fusions and cyclised them with the DVT linker. For peptides SP10, SP11, SP12 and SP15, correct stapling was confirmed by MS, showing a similar composition to SP2 (Fig. S15–S18 ^†). Thus, we confirm that the pseudo-dilution approach is robust in yielding almost exclusively the cyclised product, irrespective of whether a helical or non-helical motif is being constrained. To examine the effect of introducing a covalent staple on affinity, a mock reaction was done in parallel for each peptide by splitting the IMAC elution into two halves and adding DMSO to the mock control instead of the linker. TCEP (500 μM) was included in the mock reaction to maintain the peptide in linear form by preventing disulfide formation. The peptides were tested in a fluorescence polarisation (FP) assay monitoring the displacement of a fluorescently-labelled BRC4 repeat from a monomeric version of RAD51 (HumRadA22), as reported previously.[25] […]
Fluorescence polarisation competition assay
FP competition assay was a modified version of a protocol described previously. Fluorescein-labelled HsBRC4 probe for this assay was kindly provided by Dr Laurens Lindenburg (Hollfelder group, Department of Biochemistry, University of Cambridge). Black 384-well flat-bottom microplates (Corning, 3821) were used with a 40 μl final reaction volume in all measurements. Following buffer conditions were used: 20 mM CHES pH 9.5, 150 mM NaCl, 0.1% BSA, 0.1% Tween-20. Each reaction contained 100 nM HumRadA22 and 10 nM BRC4-fluorescein. Two-fold serial dilutions of stapled peptides were added to the reactions. A free probe control reaction containing only 10 nM BRC4-fluorescein was used to calibrate gain and focal height. FP measurements were performed on Pherastar FX or Clariostar Plus (BMG Labtech) plate readers equipped with an FP 485-520-520 optic modules. Binding curves were fitted using the four-parameter logistic model with a variable Hill slope using Prism software (Graphpad). Regression fitting was performed using the least squares optimisation algorithm.
KD values were estimated from the fitted IC 50 parameters using a previously reported

In assay [2] the test system is RAD51:dT60 nucleoprotein filament (full-length human RAD51). Put plainly: Electrophoretic mobility shift assay (EMSA) of nucleoprotein filament disruption. The assay is classed as biochemical. To be noted: 5 μM full-length human RAD51, 100 nM FAM-dT60, varying peptide concentrations; 50 mM HEPES pH 7.4, 1 mM ATP. On the procedure:
We evaluated the effect of stapled peptides SP2, SP24 and SP30 on the nucleoprotein filament using electrophoretic mobility shift assay (EMSA, Fig. 3D). A fluorescently labelled dT60 oligonucleotide was incubated with full-length RAD51, after which the peptides were added at different concentrations before separating the products on a polyacrylamide gel.
Isothermal titration calorimetry
Peptides were resuspended in MilliQ water to 10 times the desired final concentration.
This was then diluted 10x with the ITC buffer to obtain the final titrant solution (20 mM CHES pH 9.5, 150 mM NaCl, 0.1% Tween-20). HumRadA22 was buffer-exchanged on a NAP-5 desalting column (Cytiva) into ITC buffer and protein concentration was adjusted to 10:9 of the desired final value. One ninth volume of MilliQ water was added to the solution to bring the protein concentration to the desired final value, while maintaining identical buffer:MilliQ volume proportions in both the syringe and the cell. ITC was carried out using a Microcal ITC200 or Malvern PEAQ ITC instruments at 25°C with a 5.00 μCal reference power DP value, stirring speed of 500-750 rpm, 2 sec filter period. Injection spacing, speed and volume, cell/syringe concentrations as well as the number of injections were adjusted for each peptide and its binding properties. ITC data were fitted using a single-site binding model using the Microcal ITC data analysis program in the Origin 7.0 package. Data points affected by baseline spikes were omitted from the analysis.
Circular dichroism spectroscopy
Dried peptides were dissolved in MilliQ water to 0.3 mg/ml, and then two-fold diluted in 20 mM sodium phosphate, pH 7.4, giving a final solution of 0.15 mg/ml peptide in 10 mM sodium phosphate. CD spectra of selected peptides were recorded on an AVIV 410 circular dichroism spectropolarimeter using a 1 mm path length quartz cuvette. […]
The ability of linear and stapled BRC repeat peptides to dissociate RAD51-ssDNA nucleofilament was evaluated using an electrophoretic mobility shift assay (EMSA). […]
For orientation: Mobility shift assays separate free from complexed probe on a gel.

The mark [3] stands for this setting: unstapled linear form, mock reaction with DMSO instead of linker plus TCEP, 20 mM CHES pH 9.5, read-out: FP competition KD, nM, Unstapled.
Setting [4] is: stapled product (linker DVT or DVP as in Table 1), 20 mM CHES pH 9.5, 150 mM NaCl, 0.1% BSA, 0.1% Tween-20, read-out: FP competition KD, nM, Stapled.

For “VNSSAFSGFSTASGKKLNVSTEALQKAVKLFSDIENIS [GB1-BRC8-2, linear BRC8-2 template as GB1/C-His8 fusion]”, in assay [1] (setting [3]), the Kd (usually the equilibrium constant for the complex coming apart) was 11 nM.

Take “VNCSAFSGFSTASGKKLCVS (also: sidechain bridge or staple (positions not given here)) [GB1-SP14, GB1/C-His8 fusion peptide stapled with DVT; unstapled column is its linear mock control]”: the Kd in assay [1] (setting [4]) and in assay [1] (setting [3]) was greater than 500 nM in each case.

Consider “VNSSAFSGFSTASGKKLNVSTCALQKAVCLFSDIENIS (also: sidechain bridge or staple (positions not given here)) [GB1-SP8, GB1/C-His8 fusion peptide stapled with DVT; unstapled column is its linear mock control]”, for which the Kd in assay [1] (setting [4]) was 29 nM; in assay [1] (setting [3]), 45 nM.

Regarding “VNSSAFSGFCTASGKKLNVSCEALQKAVKLFSDIENIS (also: sidechain bridge or staple (positions not given here)) [GB1-SP7, negative control GB1/C-His8 fusion peptide stapled with DVT; unstapled column is its linear mock control]”, the Kd in assay [1] (setting [3]) is 39 nM.

For “SCFSTASGKKLNVSCEALQKAVKLFSDIENIS (also: sidechain bridge or staple (positions not given here)) [GB1-SP11, GB1/C-His8 fusion peptide stapled with DVT; unstapled column is its linear mock control]”, the Kd in assay [1] (setting [4]) is 36 nM; in assay [1] (setting [3]), 29 nM.

As for “ACGFSTASGKKLNVSCEALQKAVKLFSDIENIS (also: sidechain bridge or staple (positions not given here)) [GB1-SP10, GB1/C-His8 fusion peptide stapled with DVT; unstapled column is its linear mock control]”, the Kd in assay [1] (setting [4]) is 27 nM; in assay [1] (setting [3]) it was 35 nM.

As for “VNCSAFSGFSTASGKKLNVSTEALCKAVKLFSDIENIS (also: sidechain bridge or staple (positions not given here)) [GB1-SP13, GB1/C-His8 fusion peptide stapled with DVT; unstapled column is its linear mock control]”, the results for the Kd in assay [1] (setting [4]) and in assay [1] (setting [3]) were 28 nM and 21 nM, respectively.

With “VNSSAFSGFSTASGKKLNVSCEALQKACKLFSDIECIS (also: sidechain bridge or staple (positions not given here)) [GB1-SP15, GB1/C-His8 fusion peptide stapled with DVT; unstapled column is its linear mock control]”, the Kd was 13 nM in assay [1] (setting [4]) and 15 nM in assay [1] (setting [3]).

“VNSSAFSGFSTASGKKLNVSTEALCKAVKLFCDIENIS (also: sidechain bridge or staple (positions not given here)) [GB1-SP9, GB1/C-His8 fusion peptide stapled with DVT; unstapled column is its linear mock control]”: the figures for the Kd in assay [1] (setting [4]) and in assay [1] (setting [3]) were 51 nM and 57 nM, respectively.

With “H-GSVNSSAFSGFSTASGKKLNVSCEALQKACKLFSDIENISGSS-OH (linker 23-30 via X2) [SP2]”, the “Depolymerisation of RAD51 from single-stranded DNA (EMSA)” value in assay [2] is reported as “depolymerise RAD51 from single-stranded DNA to similar extent”.

On to “SSACSGFSTASGKKLNVSTEACQKAVKLFSDIENIS (also: sidechain bridge or staple (positions not given here)) [GB1-SP12, GB1/C-His8 fusion peptide stapled with DVT; unstapled column is its linear mock control]”, for which the values for the Kd in assay [1] (setting [4]) and in assay [1] (setting [3]) were 14 nM and 50 nM, respectively.

In the case of “SCEALQKACKLFSDIENIS (also: sidechain bridge or staple (positions not given here)) [GB1-SP1, GB1/C-His8 fusion peptide stapled with DVT; unstapled column is its linear mock control]”, the Kd in assay [1] (setting [4]) and in assay [1] (setting [3]) was greater than 500 nM throughout.

In the case of “ACSGFSTASGKKLNCS (also: sidechain bridge or staple (positions not given here)) [GB1-SP16, GB1/C-His8 fusion peptide stapled with DVT; unstapled column is its linear mock control]”, the Kd in assay [1] (setting [4]) and in assay [1] (setting [3]) was greater than 500 nM in each case.

As to “VNSSAFSGFSTASGKKLNVSCEALQKACKLFSDIENIS (also: sidechain bridge or staple (positions not given here)) [GB1-SP2, GB1/C-His8 fusion peptide stapled with DVT; unstapled column is its linear mock control]”, the Kd in assay [1] (setting [4]) is 15 nM; in assay [1] (setting [3]) it was 6 nM.
